Laboratory results taken from ChEMBL document CHEMBL4251597, “Discovery and evolution of aloperine derivatives as a new family of HCV inhibitors with novel mechanism” (Eur J Med Chem, 2018).
Calls of active or inactive are those of the source. The rule behind the calls is not given here.

Columns and labels:
[1] = tested on: Hepatitis C virus; assay: Antiviral activity against HCV J6/JFH/JC-1 infected in human Huh7.5 cells assessed as inhibition of NS3/4A protein levels at 0.5 uM by Western blot method; assay type: functional, organism-based; settings: Hepacivirus hominis, TDE = time-dependent effect
[2] = tested on: Hepatitis C virus; assay: Antiviral activity against HCV J6/JFH/JC-1 infected in human Huh7.5 cells harboring NS3/4A A156T mutant assessed as inhibition of viral core protein levels at 0.01 to 1 uM treated with fresh media containing compound every 2 days by Western blot method; assay type: functional, organism-based; settings: Hepacivirus hominis
[3] = tested on: Hepatitis C virus; assay: Antiviral activity against HCV infected in human GS4.3 cells assessed as inhibition of viral core protein levels at 0.5 uM treated with fresh media containing compound every 2 days measured after 6 days by Western blot method; assay type: functional, organism-based; settings: Hepacivirus hominis
[4] = tested on: Hepatitis C virus; assay: Antiviral activity against HCV J6/JFH/JC-1 infected in human Huh7.5 cells assessed as inhibition of NS3/4A levels at 0.05 uM preincubated for 2 hrs followed addition of Huh7.5 cells for 4 hrs measured within 72 hrs by Western blot method; assay type: functional, organism-based; settings: Hepacivirus hominis
[5] = tested on: Hepatitis C virus; assay: Antiviral activity against HCV J6/JFH/JC-1 infected in human Huh7.5 cells assessed as inhibition of viral core protein levels at 0.05 uM preincubated for 2 hrs followed by centrifugation for 4 hrs and subsequent addition of Huh7.5 cells measured within 72 hrs by Western blot method; assay type: functional, organism-based; settings: Hepacivirus hominis
[6] = tested on: Hepatitis C virus; assay: Antiviral activity against HCV J6/JFH/JC-1 infected in human Huh7.5 cells assessed as inhibition of NS3/4A A156T mutant levels at 0.01 to 1 uM treated with fresh media containing compound every 2 days by Western blot method; assay type: functional, organism-based; settings: Hepacivirus hominis
[7] = tested on: Hepatitis C virus; assay: Antiviral activity against HCV J6/JFH/JC-1 infected in human Huh7.5 cells assessed as inhibition of NS3/4A levels at 0.05 uM preincubated for 2 hrs followed by centrifugation for 4 hrs and subsequent addition of Huh7.5 cells measured within 72 hrs by Western blot method; assay type: functional, organism-based; settings: Hepacivirus hominis
[8] = tested on: Hepatitis C virus; assay: Antiviral activity against HCV J6/JFH/JC-1 infected in human Huh7.5 cells assessed as inhibition of viral core protein levels at 0.05 uM preincubated for 2 hrs followed addition of Huh7.5 cells for 4 hrs measured within 72 hrs by Western blot method; assay type: functional, organism-based; settings: Hepacivirus hominis
[9] = Selectivity index, ratio of CC50 for human Huh7.5 cells to EC50 for HCV J6/JFH/JC-1; assay type: toxicity; settings: read-out: Ratio CC50/EC50
[10] = tested on: Hepatitis C virus; assay: Antiviral activity against HCV infected in human GS4.3 cells assessed as inhibition of NS3/4A levels at 0.5 uM treated with fresh media containing compound every 2 days measured after 6 days by Western blot method; assay type: functional, organism-based; settings: Hepacivirus hominis
[11] = Cytotoxicity against human Huh7.5 cells after 72 hrs by MTT assay; assay type: cell-based
[12] = tested on: Hepatitis C virus; assay: Antiviral activity against HCV J6/JFH/JC-1 infected in human Huh7.5 cells assessed as inhibition of viral core protein levels at 0.5 uM by Western blot method; assay type: functional, organism-based; settings: Hepacivirus hominis, TDE = time-dependent effect
[13] = tested on: Hepatitis C virus; assay: Antiviral activity against HCV J6/JFH/JC-1 infected in human Huh7.5 cells assessed as inhibition of viral RNA replication after 72 hrs by qRT-PCR method; assay type: functional, organism-based, Hepacivirus hominis; settings: J6/JFH/JC-1, Huh7.5, 72 h

CCC[C@H](NC(=O)[C@@H]1[C@H]2CCC[C@H]2CN1C(=O)[C@@H](NC(=O)[C@@H](NC(=O)c1cnccn1)C1CCCCC1)C(C)(C)C)C(=O)C(=O)NC1CC1 [TELAPREVIR]
inhibition [1]: Tde | inhibition [2]: inactive | inhibition [3]: Active | inhibition [4]: Active | inhibition [5]: inactive | inhibition [6]: inactive | inhibition [7]: inactive | inhibition [8]: Active | selectivity ratio [9]: 840 | inhibition [10]: Active | CC50 at 72 h [11]: 25.2 µM | inhibition [12]: Tde | EC50 [13]: 30 nM
